Tests used:
[1] = cited from earlier work
[2] = animal models; cited from earlier work
[3] = Personal experience of capsaicin use; type: in vivo; details: humans
[4] = cited from earlier work; remark: listed apart in the source

SMILES	solubility in water [1]	endurance capacity [2]	lipolysis [2]	effects of use on energy, exercise capacity, endurance, mood, appetite, alertness [3]	mean half-life in plasma ([4]; healthy individuals)	blood-brain barrier passage ([4]; in vivo)
COc1cc(CNC(=O)CCCC/C=C/C(C)C)ccc1O [Capsaicin]	only slightly soluble in water	increase endurance capacity	promote lipolysis	boosts energy, increases exercise capacity, increases endurance, improves mood, decreases appetite and increases alertness	–	–
Cn1c(=O)c2c(ncn2C)n(C)c1=O [caffeine]	–	–	–	–	about 5 hours	readily crosses the blood-brain barrier
